The text below walks through data of US7666905B2, “Compositions comprising hepoxilin analogs and their use in the treatment of cancer” (priority 2002, dated 2010).

In data set [1] the test system is K562 cells. Description: Nuclear fragmentation by Hoechst 33342 staining of K562 cells. The format is cell-based, human. The following applies: Hoechst 33342 dye, FIG. 5 Panel B; STI571 1 μM, I-BOP 1 μM. Here is the method: Quantification of apoptosis and cell viability. Induction of apoptosis and loss of cell viability after treatment with PBT-3 were assessed by staining the cells with Hoechst 33342 dye. […] Pellets were suspended with 5 μg/ml of Hoechst 33342 dye for 10 minutes at room temperature. Micrographs of the DNA-stained cells were taken with a Zeiss Axiovert 100 TV video camera. Images were captured using Axiovision version 3.0.6 and processed using Photoshop 5.0. Apoptotic cells were identified based on nuclear fragmentation and chromatin condensation around the nucleus.
Nuclear fragmentation was assessed by direct microscopy of treated cells stained with Hoechst 33342 dye.

Data set [2] deals with K562 CML cells. The data set can be described thus: 3H-thymidine incorporation in K562 CML cells. The following applies: for effect on K562 cell growth: FIGS. 1-4. The format is cell-based, human. Here is the method:
Cell culture. Human leukemia K562 cells, obtained from the Hematology Department of the Hospital for Sick Children, were maintained as suspension cultures in RPMI 1640 medium containing 100 U/ml penicillin G, 100 μg/ml streptomycin, 10% (v/v) fetal bovine serum in a humidified atmosphere of 5% CO2 at 37° C. The ability of the cells to exclude Trypan Blue dye was used to assess cell viability.
Cells were seeded in 24 well dishes at a cell number of 5×10^4 cells/ml in starving medium (SM) of alpha Modified Eagle's Medium without fetal bovine serum (FBS) supplementation and incubated at 37° C. for 12 h. Tritiated thymidine ([^3H]-Thymidine; 25 Ci/mmol stock) was diluted in SM to a final activity of […]. The pharmacological agents tested were all diluted from their respective stocks to the desired concentration(s) with the tritiated SM. Cells receiving no drug treatments and cells treated with DMSO only were used as controls. SM was removed from the dishes, then treated with the various pharmacological agents in SM containing tritiated thymidine for 6 h at 37° C. PBT-3 was used at 2.8 μM in DMSO, (other than in dose response studies), I-BOP was used at 1.0 μM (in DMSO) and U46619 was used at 1.0 μM (in DMSO). Cells were trypsinized after 6 h and washed through Whatman GF-B/C membranes along with the supernatant. Dried membranes were deposited in scintillation vials with 8ml scintillation cocktail and the radioactivity present in the cells was counted with a liquid scintillation counter.
The effect of hepoxilin analogs on leukemia cells was examined using the CML K562 cell line. This cell line was derived from a human CML patient and is an accepted model of human chronic leukemia. The K562 cell line expresses the bcr/abl protein (Lozzio & Lozzio, 1975). It is relatively resistant to apoptosis (Martin et al., 1990), but ST1571 and other agents appear to control cell growth for a while before the cells overcome the drug effect (Weisberg & Griffin, 2000).

For data set [3], the system named is K562 cells. Description: 3H thymidine uptake in K562 cells after 2 days treatment, cell number reduction and culture without drug. The following applies: PBT analogues 28 μM, I-BOP and STI571 1 μM, then 3 days without compounds, FIG. 13. The format is cell-based, human. Here is the method:
K562 cells (3×10^5 cells/plate) were cultured for 2 days in 1% FBS/αMEM in the presence of 28 μM PBT-3 (∘) or 1 μM STI (●) and ^3H thymidine incorporation was determined. Untreated control cells (□) and cells treated with DMSO alone (▪) were also examined (test compounds were dissolved in DMSO). Results are shown in FIG. 12, Panel A. The cell number in all dishes was reduced to that observed after two days of PBT-3 treatment (7.5×10^3/ml) and the cells were subsequently cultured for 3 days in 10% FBS in the absence of the test compounds.
The hepoxilin analogs compare very favourably in efficacy with STI571.

For data set [4], the system named is normal bone marrow cells. Description: FACS analysis of apoptosis in normal bone marrow cells. The class given is cell-based. The following applies: FIG. 8. Here is the method: (§1) Cells were seeded at 1×10^6 cells/ml and treated as above. Cells were scraped into 1×PBS, pelleted, washed, and repelleted as above. Cells were washed with PBS twice and scraped. The cells were pelleted by centrifugation at 1500 rpm, 5 min, at 23° C. and washed again. Cells were fixed with 50 μl PBS/HBSS with 2% calf serum and then with addition of 1 ml ice cold 80% ethanol. Samples were incubated on ice for 30 min and PBS/HBSS fixing was repeated and followed by adding 1 ml 70% ethanol. Centrifugation (1500 rpm, 5 min, room temperature) was performed to produce cell pellets that were resuspended by 250 μl of 0.1 mg/ml Propidium Iodide (Sigma) with 0.6% NP-40. 250 μl of 2 mg/ml RNAse was added and mixed well. Cells were incubated in the dark for 30 min at room temperature. Samples were then filtered through 85 μm Nitex mesh and the stained cells were analyzed on a flow cytometer of FACScan (Becton-Dickinson). The acquisition was done with 10,000 events per sample. The CellQuest (Becton-Dickinson) statistic analysis was performed in each individual experiment.

The subject of data set [5] is caspase-3. The data set can be described thus: Western blot of caspase-3 activation (cleavage to 17 kDa fragment) in K562 cells. The following applies: FIG. 14. The format is cell-based, human.
The test system of data set [6] is Bcl-XL. Description: Western blot of Bcl-XL expression in K562 cells. The format is cell-based, human. The settings on record: FIG. 11. Here is the method: (§2) Cells were seeded in 100 mm culture dishes at a cell count of 5×10^4 cells/ml in 10 ml of SM and incubated at 37° C. for 12 h. Drug treatments were: DMSO as control, 0.05 μM I-BOP in DMSO, 0.5 μM I-BOP with 2.8 μM PBT-3, or 2.8 μM PBT-3 in DMSO. These concentrations were chosen based on results generated from the cell proliferation studies using thymidine incorporation. Cells were treated with drugs as described above for 6 h. After 6 h, cells were washed with 1×PBS and scraped, pelleted by centrifugation (1500 rpm, 5 min, room temperature), and washed again and pelleted as above. 200 μl cell lysis buffer (20 mM Tris-d pH 7.4, 150 mM NaCl, 1 mM EDTA, 1 mM EGTA, 1% Tx-100, 2.5 mM […], 1 mM β-glycerophosphate, 1 mM […], 1 μg/ml leupeptin, and 1 mM PMSF) were added to resuspend each pellet followed by 30 minutes of incubation on ice. […] Protein concentration was determined using a BSA standard with a BCA protein assay kit, prior to Western blotting.
(§3) Aliquots of protein (40 μg) were heated to 90° C. in SDS sample load buffer for 5 minutes, then separated by SDS-PAGE on 10% gels and transferred to nitrocellulose membranes. […] Membranes were then washed 5× in TBS-T. Bound first antibodies were detected by HRP-anti-rabbit immunoglobulins at 1:1000 in 5% non-fat dry milk for 1 h at room temperature, washing 5× in TBS-T then with enhanced chemiluminscent autoradiography (ECL). […]

Data set [7] relates to normal aortic smooth muscle cells. Description: FACS analysis of apoptosis in normal aortic smooth muscle cells. The format is cell-based. The settings on record: FIG. 9. Here is the method: as §1
The subject of data set [8] is Akt. The data set can be described thus: Western blot of Akt phosphorylation in K562 cells. The format is cell-based, human. The following applies: FIG. 11. Here is the method: as §2, §3
In data set [9] the test system is K562 CML cells. The data set can be described thus: DNA fragmentation (laddering) by agarose gel electrophoresis in K562 cells. The format is cell-based, human. The settings on record: PBT-3 2.8 μM, 24 or 72 hours, FIG. 5 Panel A. Here is the method: Analysis of DNA fragmentation by gel electrophoresis. […] The samples were loaded on 2% agarose gel containing ethidium bromide (0.2 μg/ml). DNA fragments of known size were used as a reference marker. After electrophoresis at 25 V for 5 hours, the gels were photographed under trans-UV illumination.
Studies were carried out to determine if PBT-3 affected apoptosis in K562 CML cells. Cells were cultured for 24 or 72 hours in the presence of growth medium (control) or PBT-3 (2.8 μM). Apoptosis was examined by DNA laddering. Cultures were harvested, DNA was extracted with DNeasy (Qiagen) and samples were loaded on a 2% agarose gel containing 0.2 μg/ml ethidium bromide. A λ BstII DNA digest with DNA fragments of known size was used as a reference marker. After electrophoresis at 25V for 5 h, gels were photographed under trans-UV illumination.

Data set [10] deals with MDA-MB 231 breast cancer cells. Description: FACS analysis of breast cancer cell line MDA-MB 231. The format is cell-based. The following applies: FIG. 7. Here is the method: as §1
For data set [11], the system named is 3T3 L1 adipocytes. The data set can be described thus: FACS analysis of apoptosis in normal 3T3 L1 adipocytes. The format is cell-based. The following applies: FIG. 10. Here is the method:
as §1

Consider `O=C(O)CCC/C=C\CC1C2CCC(O2)C1/C=C/C(O)COc1ccc(I)cc1` (stereo not drawn) [I-BOP, [1S-[1α,2α(Z),3β(1E, 3S*), 4α]]-7-[3-[3-hydroxy-4-(iodophenoxy)-1-butenyl]-7-oxabicyclo[2.2.1]hept-2-yl]-5-heptenoic acid, reference compound], for which, in data set [1], the “apoptotic effect (fragmentation of the nucleus and chromatin condensation)” value is recorded as “No similar apoptotic effect”. Also, the “effect on K562 cell growth” value in [2] is given as “neither the thromboxane receptor agonists nor the thromboxane receptor antagonist affected K562 cell growth”.
In the case of `CCCCC/C=C\CC1CC1/C=C/C(O)C/C=C\CCCC(=O)OC` [PBT-2, 8(R)-hydroxy-11, 12-cyclopropyl-eicosa-5Z, 9E, 14Z-trienoic acid methyl ester], the “effectiveness in inhibiting cell growth (rank among treatments)” value in [3] is on record as “most effective treatment”.
For `CCCCC/C=C\CC1CC1C(O)/C=C\C/C=C\CCCC(=O)OC` [PBT-3, 10(S)-hydroxy-11,12-cyclopropyl-eicosa-5Z,8Z,14Z-trienoic acid methyl ester], the “apoptotic effect on normal bone marrow cells” value in data set [4] is reported as “no apoptotic effect”. In [1], the “apoptotic effect (fragmentation of the nucleus and chromatin condensation)” value is “produced apoptotic cells”. Besides, the “time of caspase-3 activation (cleavage into a 17 kDa fragment)” value in [5] was 6 h. Also, in [6], the “effect on expression of the Bcl pathway (Bcl-XL)” value was “essentially inactive”. Further, in data set [7], the “apoptotic effect on normal aortic smooth muscle cells” value is “no apoptotic effect”. Moreover, the “effect on phosphorylation of Akt” value in [8] is “blocked phosphorylation of Akt”. In addition, the “DNA fragmentation associated with apoptosis” value in [9] is on record as “causes DNA fragmentation associated with apoptosis”. The “synchronisation of cells (to Go phase)” value in data set [10] was “synchronisation effect”. Also, in data set [11], the “apoptotic effect on normal (3T3 L1) adipocytes” value is recorded as “no apoptotic effect”. In [2] (FIG. 1), the “concentration of maximum effect on inhibition of K562 cell growth” value stood at 1 µg/mL. Moreover, the “effect on K562 cell growth” value in [2] was “inhibited growth of K562 cells”.
As to `O=C(O)CCC/C=C\C[C@@H]1[C@H](CNNC(=O)Nc2ccccc2)[C@H]2CC[C@@H]1O2` [SQ 29,548], the “effect on K562 cell growth” value in data set [2] was “neither the thromboxane receptor agonists nor the thromboxane receptor antagonist affected K562 cell growth”.
With `Cc1ccc(NC(=O)c2ccc(CN3CCN(C)CC3)cc2)cc1Nc1nccc(-c2cccnc2)n1` [STI571, Imatinib, reference compound], the “effect on expression of the Bcl pathway (Bcl-XL)” value in data set [6] was “blocked the expression of the Bcl pathway (Bcl-XL)”. Further, in data set [8], the “effect on phosphorylation of Akt” value is “increased it”.
For `CCCCC[C@H](O)/C=C/[C@@H]1[C@@H](C/C=C\CCCC(=O)O)[C@H]2CO[C@@H]1C2` [U46619], the “effect on K562 cell growth” value in [2] was “neither the thromboxane receptor agonists nor the thromboxane receptor antagonist affected K562 cell growth”.
